{"source": "patent US20260042802A1", "about": "“POLYPEPTIDE AND USE THEREOF” (priority 2024, published 2026)", "test_system": "mouse acetate acid writhing model", "assay": "Mouse acetate acid writhing model", "type": "in vivo, C57BL/6 mice", "conditions": "Diclofenac Sodium Group, 30 mg/kg i.p. once daily for 7 days; 8 mice", "text": "Seventy SPF-grade healthy C57BL/6 mice, half male and half female, weighing 22-25 g and 8-10 weeks old, are randomly selected. Seventy C57BL/6 mice are weighed and numbered in ascending order of body weight (No. S1-S70). The mice are randomly divided into seven groups in terms of the randomized numerical table method, which are the saline group and the experimental groups, among which the experimental groups include the PPN-01 group, the PPN-04 group, the PPN-06 group, the PPN-11 group, the PPN-12 group, and the PPN-16 group. The dosing concentration (i.e., the concentration of added polypeptides PPN-01, PPN-04, PPN-06, PPN-11, PPN-12, and PPN-16) in each group is 10 mg/kg, with 10 mice in each group.\n(§1) Saline Group: 10 healthy mice are routinely reared for one week; the saline is intraperitoneally injected once daily at a concentration of 10 ml/kg for 7 consecutive days; 15 min after the last injection is finished, 0.7% glacial acetic acid (10 ml/kg) is intraperitoneally injected; and each mouse is observed for their writhing behaviors.\nExperimental Group: 10 healthy mice are routinely reared for one week; 10 ml/kg of different polypeptides are injected intraperitoneally at a concentration of 0.1 mL/10 g once daily for 7 consecutive days; 15 min after the last injection is finished, 0.7% glacial acetic acid (10 ml/kg) is intraperitoneally injected; and each mouse is observed for their behaviors in writhing.\nDuring the above experiments, the time of first writhing (writhing latency) and the number of writhing in each mouse within 15 min are recorded immediately after the injection of glacial acetic acid solution in each group of mice. When behavioral responses such as inward concavity of the abdomen, extension of the torso and hind limbs, and elevation of the buttocks occur, it is considered to be a complete writhing response, and the results are shown in Table 3 and FIG. 6.\nForty SPF-grade healthy C57BL/6 mice, half male and half female, weighing 22-25 g and 8-10 weeks old, are randomly selected. Forty C57BL/6 mice are weighed and numbered in ascending order of body weight (No. 1 to No. 40). The mice are randomly divided into five groups according to the randomized numerical table method, namely, the saline group, the low-concentration group (2.5 mg/kg), the medium-concentration group (10 mg/kg), the high-concentration group (40 mg/kg), and the diclofenac sodium group (30 mg/kg), with eight mice in each group.\nas §1, with “Group: 8” for “Group: 10”, “their behaviors in writhing. […]” for “their writhing behaviors.”"}
{"smiles": "O=C(O)Cc1ccccc1Nc1c(Cl)cccc1Cl", "note": "[Diclofenac Sodium, diclofenac sodium, reference compound]", "values": [{"measurement": "Inhibiting Rate (writhing)", "value": 77.6, "unit": "%"}]}
